How the values were obtained:
fasted mice = test: Food intake on refeeding of fasted wildtype mice; assay type: in vivo, Mus musculus; conditions: mice fasted 18 h, 5 nmol i.p. before refeeding, p=0.0181 (FIG. 7)
Experimental: For the measurement of food intake, a feeding-drinking-activity (FDA) device was used (TSE Systems, Bad Homburg/Germany). During the measurement mice were single-housed in type-III cages. Mice were habituated to the new cage environment and received every morning at 10 a.m. a single daily intraperitoneal (i.p.) PBS-injection for four days ahead of the experiment start. The body weight of the mice was measured every day. On day four day of habituation the food was removed from the cages at 5 p.m., and the mice were food deprived over night with ad libitum access to water. On the next morning, mice were i.p. injected with either PBS as control or secretin (rat, Tocris, Art Nr 1919). The latter was given in different doses. Subsequently the mice were refed ad libitum while monitoring food intake during the following 72 hours. […] Food intake was calculated from the decrease in feeder weight. The results were exported into a spreadsheet calculation table (Excel, Microsoft) and analyzed with a software package for statistics and graphics (GraphPad Prism 4.0, GraphPad Software, San Diego, USA).
Next to thermogenesis, brown fat has been proposed to function in the thermoregulatory control of feeding. […] Just before refeeding, mice were intra-peritoneally injected with 5 nmol secretin solved in PBS, or PBS as the vehicle control, and food intake was monitored for the following three days.

[1] = system: primary brown adipocytes from UCP1 knockout mice; test: Microplate respirometry (oxygen consumption rate) in primary brown adipocytes from UCP1 knockout mice; assay type: cell-based, Mus musculus
Experimental: For culturing primary adipocytes male 129S1/SvImJ mice ([…] or UCP1-KO mice and wildtype littermates) at the age of 5-6 weeks were used for the dissection of inguinal and epidydimal white adipose tissue and interscapular brown adipose tissue depots. The tissue was carefully minced and treated with collagenase for 45 min at 37° C. The homogenate was filtered through a 250 μm nylon mesh and centrifuged at 500 g to collect the stromal vascular fraction (SVF). The SVF cell pellet was rinsed and seeded into XF96 V3-PS cell culture microplate (Seahorse Bioscience). After reaching confluency, induction medium containing 10% fetal bovine serum (FBS), 0.5 mM isobutylmethylxanthine, 125 nM indomethacin, 1 mM dexamethasone, 850 nM insulin and 1 nM T3 was added. After 2 days of induction, cells were maintained in differentiation media (10% FBS, 850 nM insulin and 1 nM T3). Medium was changed every two days. Respiration was measured on day 7 of differentiation. For determination of mRNA levels cells were stimulated at the 7th day of differentiation for 6 hours with secretin (rat, Tocris, Art Nr 1919) or isoproterenol (Sigma-Aldrich, Art Nr. 16504-100MG) and harvested subsequently. Oxygen consumption rate (OCR) was measured at 37° C. using a microplate respirometer (XF96 extracellular flux analyzer, Seahorse Bioscience). At day 7, the differentiation medium was replaced with prewarmed, unbuffered assay medium (DMEM basal medium supplemented with 25 mM glucose, 2 mM sodium pyruvate, 31 mM NaCl, 2 mM GlutaMax and 15 mg/l phenol red, pH 7.4) containing 2% of essentially fatty acid free bovine serum albumin (BSA), and incubated at 37° C. in a room air incubator for 1 h. Basal respiration was measured in untreated cells. […] Maximum respiratory capacity was assessed after FCCP (Sigma-Aldrich) addition (1 μM). […] Oxygen consumption rates were calculated using the Seahorse XF-96 software. […] For induction of OCR by isoproterenol, secretin or FCCP the highest values measured after addition of the respective molecule was used. The “OCR in % of basal OCR” and “OCR in % of FCCP OCR” were calculated as follows: Method: To test whether SCT can activate thermogenesis in brown adipocytes, we measured UCP1-mediated uncoupled respiration in cultured adherent intact primary brown adipocytes, according to a protocol recently established in our lab (Li Y, Fromme T, Schweizer S, Schöttl T, Klingenspor M. EMBO Rep. 2014 October; 15(10):1069-76. doi: 10.15252/embr.201438775; […]. Meaningful respirometric measurements of UCP1-mediated thermogenesis. Biochimie. 2017 March; 134:56-61. doi: 10.1016/j.biochi.2016.12.005.). The cellular oxygen consumption rate (OCR) of primary adipocytes was determined using an XF96 Extracellular Flux Analyzer (Seahorse Bioscience). […]

secretin
food intake during the first two hours of refeeding versus PBS (fasted mice): significant inhibition of food intake
induction of respiration in cells from UCP1 knockout mice ([1]; 129/S1 background, FIG. 3): lacking
response of respiration in UCP1 knockout brown adipocytes ([1]; SCT 10 nM, ISO 500 nM (FIG. 10B)): did not respond

— patent US20200179488A1, “Secretin Receptor Agonists to Treat Diseases or Disorders of Energy Homeostasis” (Technische Universität München, priority 2016, published 2020)
